Measured values taken from ChEMBL document CHEMBL1158011, “Five new flavone 5-O-glycosides from Lethedon tannaensis: lethedosides and lethediosides” (J Nat Prod, 1999).
Converted amounts (≈) assume the structure as drawn.

Test system: KB
Assay: Cytotoxicity against human KB cells after 72 hrs by neutral red assay
Assay type: functional, cell-based

Row | SMILES | IC50 [µg/mL]
1 | COc1cc(O[C@@H]2O[C@H](CO)[C@@H](O)[C@H](O)[C@H]2O)c2c(=O)cc(-c3ccc(OC)c(OC)c3)oc2c1 [LETHEDOSIDE A] | > 100
2 | COc1cc(O[C@@H]2O[C@H](CO)[C@@H](O)[C@H](O)[C@H]2O)c2c(=O)cc(-c3cc(O)c(OC)c(OC)c3)oc2c1 [LETHEDOSIDE C] | 43 (≈ 84.9 µM)
3 | COc1cc(O[C@@H]2O[C@H](CO)[C@@H](O)[C@H](O)[C@H]2O)c2c(=O)cc(-c3cc(OC)c(OC)c(OC)c3)oc2c1 [LETHEDOSIDE B] | 37 (≈ 71.1 µM)
4 | COc1cc(O[C@@H]2O[C@H](CO[C@@H]3OC[C@@H](O)[C@H](O)[C@H]3O)[C@@H](O)[C@H](O)[C@H]2O)c2c(=O)cc(-c3ccc(OC)c(OC)c3)oc2c1 [LETHEDIOSIDE A] | > 100
5 | COc1ccc(-c2cc(=O)c3c(O[C@@H]4O[C@H](CO[C@@H]5OC[C@@H](O)[C@H](O)[C@H]5O)[C@@H](O)[C@H](O)[C@H]4O)cc(OC)cc3o2)cc1 | > 100
6 | COc1cc(O)c2c(=O)cc(-c3ccc(O)c(OC)c3)oc2c1 [VELUTIN] | 1.5 (≈ 4.77 µM)
7 | COc1cc(O[C@@H]2O[C@H](CO[C@@H]3OC[C@@H](O)[C@H](O)[C@H]3O)[C@@H](O)[C@H](O)[C@H]2O)c2c(=O)cc(-c3cc(OC)c(OC)c(OC)c3)oc2c1 [LETHEDIOSIDE B] | 32 (≈ 49 µM)
